Results: paper PMC3382171 (PLoS ONE, 2012)

What was measured:
Assay in all cases: biochemical
Conditions in all cases: read-out: Upstate KSS % inhibition at 1uM
BMX = BMX (Homo sapiens, UniProt P51813)
Method: (§1) In these selectivity assays the concentration of ATP was set to the Km value of ATP for each kinase tested to allow for a relative potency comparison between the various kinases. The compounds were tested at 1 µM final concentration. […] (A) Kinase selectivity screen (KSS) performed at Upstate Biotechnology. […] (B) KSS performed at University of Dundee (Division of Signal Transduction Therapy). […] (PDF) Click here for additional data file.

Yes = target: T1, Yes (Homo sapiens, UniProt P07947)
T1 construct: gene YES1
T1 sequence (P07947 whole entry): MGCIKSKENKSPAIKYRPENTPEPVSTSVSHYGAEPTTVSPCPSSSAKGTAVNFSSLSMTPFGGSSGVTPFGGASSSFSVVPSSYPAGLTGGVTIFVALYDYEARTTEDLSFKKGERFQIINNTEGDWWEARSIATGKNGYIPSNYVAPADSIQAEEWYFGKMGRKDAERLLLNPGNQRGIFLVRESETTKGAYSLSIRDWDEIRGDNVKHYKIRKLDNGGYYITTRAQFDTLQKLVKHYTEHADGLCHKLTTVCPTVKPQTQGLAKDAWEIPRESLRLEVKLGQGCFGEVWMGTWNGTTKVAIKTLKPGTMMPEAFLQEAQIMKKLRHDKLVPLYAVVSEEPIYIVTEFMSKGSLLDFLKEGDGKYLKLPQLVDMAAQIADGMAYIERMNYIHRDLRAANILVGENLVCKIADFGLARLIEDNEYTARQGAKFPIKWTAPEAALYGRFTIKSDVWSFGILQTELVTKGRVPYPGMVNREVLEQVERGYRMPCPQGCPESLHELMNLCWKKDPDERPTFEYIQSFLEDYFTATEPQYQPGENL
Method: as §1

FGR = FGR (Homo sapiens, UniProt P09769)
Method: as §1

PRK2 = target: T2, PRK2 (Homo sapiens, UniProt Q16513)
T2 construct: gene PKN2
Method: as §1

JAK2 = JAK2 (Homo sapiens, UniProt O60674)
Sequence of JAK2 (O60674 whole entry): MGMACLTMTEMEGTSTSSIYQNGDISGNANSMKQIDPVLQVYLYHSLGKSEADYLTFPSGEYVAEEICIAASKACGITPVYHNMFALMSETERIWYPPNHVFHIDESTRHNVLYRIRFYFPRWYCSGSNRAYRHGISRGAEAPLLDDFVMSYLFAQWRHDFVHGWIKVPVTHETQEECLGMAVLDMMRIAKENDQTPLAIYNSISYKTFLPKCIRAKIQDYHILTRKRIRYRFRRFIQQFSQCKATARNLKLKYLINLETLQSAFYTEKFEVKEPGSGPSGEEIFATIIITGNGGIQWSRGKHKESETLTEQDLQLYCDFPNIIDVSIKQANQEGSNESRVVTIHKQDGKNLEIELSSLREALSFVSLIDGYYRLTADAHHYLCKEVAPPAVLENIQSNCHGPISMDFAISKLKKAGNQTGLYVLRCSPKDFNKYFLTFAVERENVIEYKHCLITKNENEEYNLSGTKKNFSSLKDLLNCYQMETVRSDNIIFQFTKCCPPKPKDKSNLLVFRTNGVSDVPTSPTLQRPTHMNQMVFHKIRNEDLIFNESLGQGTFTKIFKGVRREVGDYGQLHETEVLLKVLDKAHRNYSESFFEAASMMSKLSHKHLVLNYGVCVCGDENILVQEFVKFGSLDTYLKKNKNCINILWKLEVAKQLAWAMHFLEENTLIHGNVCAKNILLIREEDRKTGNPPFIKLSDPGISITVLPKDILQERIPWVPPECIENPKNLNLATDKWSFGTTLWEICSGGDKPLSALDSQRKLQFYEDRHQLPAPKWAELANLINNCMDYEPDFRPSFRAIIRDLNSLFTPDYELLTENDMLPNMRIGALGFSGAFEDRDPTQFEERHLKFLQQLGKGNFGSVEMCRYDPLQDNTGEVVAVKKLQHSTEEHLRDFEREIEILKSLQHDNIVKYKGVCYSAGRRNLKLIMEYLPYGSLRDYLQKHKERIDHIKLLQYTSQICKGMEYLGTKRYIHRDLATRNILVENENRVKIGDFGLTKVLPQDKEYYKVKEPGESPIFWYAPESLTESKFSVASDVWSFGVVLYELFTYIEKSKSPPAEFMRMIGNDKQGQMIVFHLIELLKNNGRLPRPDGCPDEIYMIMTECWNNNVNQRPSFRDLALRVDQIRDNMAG
Method: as §1

FYN = FYN (Homo sapiens, UniProt P06241)
Method: as §1

Ros = target: T3, Ros (Homo sapiens, UniProt P08922)
T3 construct: gene ROS1
Method: as §1

Fes = Fes (Homo sapiens, UniProt P07332)
Method: as §1

AXL = AXL (Homo sapiens, UniProt P30530)
Method: as §1

Arg = target: T4, Arg (Homo sapiens, UniProt P42684)
T4 construct: gene ABL2
Method: as §1

PhKgamma = target: T5, PhKgamma (Homo sapiens, UniProt Q16816)
T5 construct: gene PHKG1
Method: as §1

Rsk3 = target: T6, Rsk3 (Homo sapiens, UniProt Q15349)
T6 construct: gene RPS6KA2
Method: as §1

BTK = BTK (Homo sapiens, UniProt Q06187)
Method: as §1

MEK1 = target: T7, MEK1 (Homo sapiens, UniProt Q02750)
T7 construct: gene MAP2K1
T7 sequence (Q02750 whole entry): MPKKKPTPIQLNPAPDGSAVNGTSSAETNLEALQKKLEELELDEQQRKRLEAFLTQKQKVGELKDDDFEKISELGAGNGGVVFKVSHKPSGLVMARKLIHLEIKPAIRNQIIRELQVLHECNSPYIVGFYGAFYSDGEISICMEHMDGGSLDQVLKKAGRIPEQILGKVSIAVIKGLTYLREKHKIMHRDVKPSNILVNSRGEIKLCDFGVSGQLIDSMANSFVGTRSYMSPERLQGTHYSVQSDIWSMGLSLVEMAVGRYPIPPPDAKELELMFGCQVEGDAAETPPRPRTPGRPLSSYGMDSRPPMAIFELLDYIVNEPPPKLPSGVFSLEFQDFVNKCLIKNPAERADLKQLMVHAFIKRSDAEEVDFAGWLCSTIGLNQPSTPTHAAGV
Method: as §1

TSSK2 = TSSK2 (Homo sapiens, UniProt Q96PF2)
Method: as §1

RIPK2 = RIPK2 (Homo sapiens, UniProt O43353)
Method: as §1

Fms = target: T8, Fms (Homo sapiens, UniProt P07333)
T8 construct: gene CSF1R
T8 sequence (P07333 whole entry): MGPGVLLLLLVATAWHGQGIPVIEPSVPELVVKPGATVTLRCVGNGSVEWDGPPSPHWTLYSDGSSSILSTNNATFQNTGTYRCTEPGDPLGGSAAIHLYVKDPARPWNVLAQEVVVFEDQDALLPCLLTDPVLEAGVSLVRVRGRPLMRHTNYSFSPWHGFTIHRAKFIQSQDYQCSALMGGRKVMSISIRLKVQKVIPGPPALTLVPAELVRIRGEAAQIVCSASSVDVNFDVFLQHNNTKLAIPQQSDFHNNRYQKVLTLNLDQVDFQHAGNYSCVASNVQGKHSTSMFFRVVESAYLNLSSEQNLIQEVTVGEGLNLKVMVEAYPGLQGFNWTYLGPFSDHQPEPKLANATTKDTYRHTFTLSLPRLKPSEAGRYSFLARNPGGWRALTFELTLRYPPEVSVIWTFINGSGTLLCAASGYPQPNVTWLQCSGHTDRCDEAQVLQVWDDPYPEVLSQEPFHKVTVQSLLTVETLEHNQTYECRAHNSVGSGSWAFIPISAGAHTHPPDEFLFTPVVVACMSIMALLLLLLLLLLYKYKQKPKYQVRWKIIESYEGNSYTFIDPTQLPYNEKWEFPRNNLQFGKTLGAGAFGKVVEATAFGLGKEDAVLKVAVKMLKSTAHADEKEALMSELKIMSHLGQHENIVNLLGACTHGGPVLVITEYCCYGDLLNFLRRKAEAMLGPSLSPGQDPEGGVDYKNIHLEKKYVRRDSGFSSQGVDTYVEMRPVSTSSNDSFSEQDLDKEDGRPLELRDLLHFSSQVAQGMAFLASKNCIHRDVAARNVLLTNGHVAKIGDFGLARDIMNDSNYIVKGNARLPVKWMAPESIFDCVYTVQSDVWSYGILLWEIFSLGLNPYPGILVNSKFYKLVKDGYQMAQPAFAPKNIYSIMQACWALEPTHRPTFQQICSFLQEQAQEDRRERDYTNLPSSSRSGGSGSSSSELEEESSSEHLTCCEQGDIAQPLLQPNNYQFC
Method: as §1

SAPK3 = target: T9, SAPK3 (Homo sapiens, UniProt P53778)
T9 construct: gene MAPK12
Method: as §1

MNK2 = target: T10, MNK2 (Homo sapiens, UniProt Q9HBH9)
T10 construct: gene MKNK2
T10 sequence (Q9HBH9 whole entry): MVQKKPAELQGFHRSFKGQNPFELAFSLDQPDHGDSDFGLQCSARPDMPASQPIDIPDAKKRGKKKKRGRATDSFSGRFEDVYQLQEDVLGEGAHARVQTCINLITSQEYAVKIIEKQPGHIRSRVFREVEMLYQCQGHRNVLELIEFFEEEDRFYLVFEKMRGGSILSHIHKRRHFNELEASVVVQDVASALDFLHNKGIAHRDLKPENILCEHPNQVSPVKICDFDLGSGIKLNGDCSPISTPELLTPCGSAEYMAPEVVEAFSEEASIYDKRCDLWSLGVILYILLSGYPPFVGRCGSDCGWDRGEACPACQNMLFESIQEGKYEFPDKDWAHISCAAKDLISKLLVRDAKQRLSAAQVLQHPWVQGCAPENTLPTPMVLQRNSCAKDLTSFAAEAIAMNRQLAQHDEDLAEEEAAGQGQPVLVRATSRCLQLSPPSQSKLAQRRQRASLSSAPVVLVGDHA
Method: as §1

RET = RET (Homo sapiens, UniProt P07949)
Method: as §1

MAPK2 = target: T11, MAPK2 (Homo sapiens, UniProt P28482)
T11 construct: gene MAPK1
Method: as §1

PASK = PASK (Homo sapiens, UniProt Q96RG2)
Method: as §1

DYRK2 = target: T12, DYRK2 (Homo sapiens, UniProt Q92630)
T12 sequence (Q92630 1-601): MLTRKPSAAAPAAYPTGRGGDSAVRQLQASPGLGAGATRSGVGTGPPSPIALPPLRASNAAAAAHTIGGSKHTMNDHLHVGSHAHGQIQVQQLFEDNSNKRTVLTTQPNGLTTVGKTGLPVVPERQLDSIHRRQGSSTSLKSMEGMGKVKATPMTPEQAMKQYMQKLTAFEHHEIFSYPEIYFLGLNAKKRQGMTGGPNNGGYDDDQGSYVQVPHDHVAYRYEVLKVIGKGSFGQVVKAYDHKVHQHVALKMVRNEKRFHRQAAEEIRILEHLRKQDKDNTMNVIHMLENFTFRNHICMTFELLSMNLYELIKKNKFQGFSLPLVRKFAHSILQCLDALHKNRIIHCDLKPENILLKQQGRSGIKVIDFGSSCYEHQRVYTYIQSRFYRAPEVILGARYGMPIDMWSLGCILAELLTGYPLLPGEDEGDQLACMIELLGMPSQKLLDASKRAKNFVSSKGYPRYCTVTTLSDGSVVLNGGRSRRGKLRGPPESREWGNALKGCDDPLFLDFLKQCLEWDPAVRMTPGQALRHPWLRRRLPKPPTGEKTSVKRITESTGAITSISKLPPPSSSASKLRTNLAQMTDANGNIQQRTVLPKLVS
Method: as §1

SAPK4 = target: T13, SAPK4 (Homo sapiens, UniProt O15264)
T13 construct: gene MAPK13
T13 sequence (O15264 whole entry): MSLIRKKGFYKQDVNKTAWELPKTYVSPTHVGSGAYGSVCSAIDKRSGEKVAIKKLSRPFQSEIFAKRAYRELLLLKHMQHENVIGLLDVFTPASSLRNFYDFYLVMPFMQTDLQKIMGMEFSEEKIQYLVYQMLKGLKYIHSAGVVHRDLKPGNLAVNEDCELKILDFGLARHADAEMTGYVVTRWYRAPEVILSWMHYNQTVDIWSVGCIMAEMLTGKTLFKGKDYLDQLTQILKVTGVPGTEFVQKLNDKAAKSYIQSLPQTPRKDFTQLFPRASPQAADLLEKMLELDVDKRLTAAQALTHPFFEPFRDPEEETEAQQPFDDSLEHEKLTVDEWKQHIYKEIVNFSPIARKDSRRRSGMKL
Method: as §1

WNK2 = WNK2 (Homo sapiens, UniProt Q9Y3S1)
Method: as §1

GSK3beta = target: T14, GSK3beta (Homo sapiens, UniProt P49841)
T14 construct: gene GSK3B
T14 sequence (P49841 whole entry): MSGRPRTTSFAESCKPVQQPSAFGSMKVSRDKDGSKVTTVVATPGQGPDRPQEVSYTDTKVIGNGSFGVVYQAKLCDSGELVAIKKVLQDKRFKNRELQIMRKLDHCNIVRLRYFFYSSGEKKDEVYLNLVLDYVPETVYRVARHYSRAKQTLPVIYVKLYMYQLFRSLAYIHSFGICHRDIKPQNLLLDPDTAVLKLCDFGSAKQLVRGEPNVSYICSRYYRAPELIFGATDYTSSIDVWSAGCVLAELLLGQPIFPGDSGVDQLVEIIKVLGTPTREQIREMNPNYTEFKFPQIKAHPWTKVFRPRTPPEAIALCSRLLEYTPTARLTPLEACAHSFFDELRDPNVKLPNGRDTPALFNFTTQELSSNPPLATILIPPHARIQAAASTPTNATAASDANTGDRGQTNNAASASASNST
Method: as §1

DDR2 = DDR2 (Homo sapiens, UniProt Q16832)
Method: as §1

CDK1/cyclinB = CDK1/cyclinB (Homo sapiens, UniProt P06493)
Sequence of CDK1/cyclinB (P06493 whole entry): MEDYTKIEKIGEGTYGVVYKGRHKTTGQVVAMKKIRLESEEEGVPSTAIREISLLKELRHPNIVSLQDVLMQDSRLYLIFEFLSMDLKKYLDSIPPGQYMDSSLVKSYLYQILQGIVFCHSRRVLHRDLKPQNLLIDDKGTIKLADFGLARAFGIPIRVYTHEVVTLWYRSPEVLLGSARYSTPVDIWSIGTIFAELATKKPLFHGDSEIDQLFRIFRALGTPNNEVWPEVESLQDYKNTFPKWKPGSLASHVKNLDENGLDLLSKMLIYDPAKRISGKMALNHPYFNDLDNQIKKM
Sequence of CDK1/cyclinB (P14635 whole entry partner): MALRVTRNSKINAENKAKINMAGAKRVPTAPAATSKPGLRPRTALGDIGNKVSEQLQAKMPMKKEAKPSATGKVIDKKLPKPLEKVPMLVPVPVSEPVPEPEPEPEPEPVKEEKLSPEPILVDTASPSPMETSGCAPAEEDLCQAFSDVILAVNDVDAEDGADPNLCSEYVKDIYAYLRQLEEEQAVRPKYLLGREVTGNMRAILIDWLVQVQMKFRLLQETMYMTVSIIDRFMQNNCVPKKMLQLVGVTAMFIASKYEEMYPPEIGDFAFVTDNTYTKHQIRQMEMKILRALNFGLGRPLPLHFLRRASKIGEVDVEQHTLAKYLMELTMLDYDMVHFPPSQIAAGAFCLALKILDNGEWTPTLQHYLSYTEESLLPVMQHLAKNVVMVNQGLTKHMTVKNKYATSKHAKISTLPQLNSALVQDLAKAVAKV
Method: as §1

Question: With OCCn1cc(-c2cnc3nnn(Cc4ccc5ncccc5c4)c3n2)cn1 [METi, PF-04217903] as the compound, how does the inhibition at 1 µM (BMX) read?
Answer: The inhibition at 1 µM was -10%.

Question: And the inhibition at 1 µM (Yes)?
Answer: Its inhibition at 1 µM is 16%.

Question: What about the inhibition at 1 µM (FGR) of the same compound?
Answer: The inhibition at 1 µM was 0%.

Question: And the inhibition at 1 µM (PRK2)?
Answer: Its inhibition at 1 µM is -11%.

Question: What about the inhibition at 1 µM (JAK2) of the same compound?
Answer: Its inhibition at 1 µM is -6%.

Question: What about the inhibition at 1 µM (FYN) of the same compound?
Answer: Its inhibition at 1 µM is -20%.

Question: What about the inhibition at 1 µM (Ros) of the same compound?
Answer: Its inhibition at 1 µM is 0%.

Question: And the inhibition at 1 µM (Fes)?
Answer: The inhibition at 1 µM was -61%.

Question: And the inhibition at 1 µM (AXL)?
Answer: The inhibition at 1 µM was -11%.

Question: What about the inhibition at 1 µM (Arg) of the same compound?
Answer: Its inhibition at 1 µM is 10%.

Question: And the inhibition at 1 µM (PhKgamma)?
Answer: The inhibition at 1 µM was -3%.

Question: What about the inhibition at 1 µM (Rsk3) of the same compound?
Answer: The inhibition at 1 µM was -3%.

Question: What about the inhibition at 1 µM (BTK) of the same compound?
Answer: Its inhibition at 1 µM is -13%.

Question: And the inhibition at 1 µM (MEK1)?
Answer: The inhibition at 1 µM was -11%.

Question: And the inhibition at 1 µM (TSSK2)?
Answer: Its inhibition at 1 µM is 4%.

Question: And the inhibition at 1 µM (RIPK2)?
Answer: Its inhibition at 1 µM is 3%.

Question: And the inhibition at 1 µM (Fms)?
Answer: The inhibition at 1 µM was -12%.

Question: And the inhibition at 1 µM (SAPK3)?
Answer: Its inhibition at 1 µM is 10%.

Question: What about the inhibition at 1 µM (MNK2) of the same compound?
Answer: Its inhibition at 1 µM is 0%.

Question: What about the inhibition at 1 µM (RET) of the same compound?
Answer: The inhibition at 1 µM was -7%.

Question: What about the inhibition at 1 µM (MAPK2) of the same compound?
Answer: Its inhibition at 1 µM is -7%.

Question: What about the inhibition at 1 µM (PASK) of the same compound?
Answer: Its inhibition at 1 µM is -13%.

Question: And the inhibition at 1 µM (DYRK2)?
Answer: The inhibition at 1 µM was -1%.

Question: What about the inhibition at 1 µM (SAPK4) of the same compound?
Answer: Its inhibition at 1 µM is -18%.

Question: And the inhibition at 1 µM (WNK2)?
Answer: Its inhibition at 1 µM is -16%.

Question: What about the inhibition at 1 µM (GSK3beta) of the same compound?
Answer: Its inhibition at 1 µM is -1%.

Question: And the inhibition at 1 µM (DDR2)?
Answer: Its inhibition at 1 µM is 0%.

Question: What about the inhibition at 1 µM (CDK1/cyclinB) of the same compound?
Answer: The inhibition at 1 µM was -7%.
